Measured values taken from patent US20030040534A1, “Enantiomers of N-[[2'-[[(4,5-dimethyl-3-isoxazolyl)amino]sulfonyl]-4-(2-oxazolyl)[1,1'-biphenyl]-2-yl]methyl]-N,3,3-trimethylbutanamide” (priority 2001, published 2003).
Like-named read-outs stand apart in the source and are kept apart here.

Tests used:
[1] = In vitro interconversion (racemization) of enantiomeric atropisomers under pseudo-physiological conditions, chiral HPLC
Description: The in vitro interconversion of N-[[2′-[[(4,5-dimethyl-3-isoxazolyl)amino]sulfonyl]-4-(2-oxazolyl)[1,1′-biphenyl]-2-yl]methyl]-N,3,3-trimethylbutanamide enantiomeric atropisomers was investigated using normal phase chiral HPLC with ultraviolet and laser polarimetric detection, under pseudo-physiological conditions, i.e., aqueous medium at 37° C., gastric fluid at 37° C. and human serum at 37° C.

[2] = molecular target: T1, human endothelin A receptor (Homo sapiens, UniProt P25101); test: In vitro ETA binding, attached cell assay, [125I]-ET-1 competition
T1 construct: expressed in transfected cells; host or cells: CHO-K1 (G-418 selected)
T1 sequence (P25101 21-427): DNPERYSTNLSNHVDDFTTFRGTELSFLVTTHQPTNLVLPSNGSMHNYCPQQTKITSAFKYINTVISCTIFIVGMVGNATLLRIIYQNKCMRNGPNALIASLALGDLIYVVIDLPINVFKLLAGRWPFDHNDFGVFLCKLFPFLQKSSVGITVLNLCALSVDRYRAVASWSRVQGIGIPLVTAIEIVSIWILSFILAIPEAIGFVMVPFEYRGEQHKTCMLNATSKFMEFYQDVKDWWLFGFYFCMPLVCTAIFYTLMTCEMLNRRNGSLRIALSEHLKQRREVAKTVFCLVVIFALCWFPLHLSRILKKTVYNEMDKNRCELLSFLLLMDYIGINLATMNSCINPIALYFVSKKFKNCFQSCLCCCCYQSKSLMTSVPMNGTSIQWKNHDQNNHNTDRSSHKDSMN
Description: The isolated atropisomers of Example 2 were tested for in vitro ETA binding according to the following procedure:
CHO-K1 cells expressing the human endothelin A receptor were cultured in Ham's F12 media (Gibco/BRL, Grand Island, N.Y.) with 10% fetal bovine serum (Hyclone), supplemented with 300 μg/mL Geneticin (G-418 Gibco BRL Products, Grand Island, N.Y.) and maintained at 37° C. with 5% CO2 in a humidified incubator. Forty eight hours prior to assay, the cells were treated with 0.25% trypsin-EDTA and were seeded in Falcon, 96 well tissue culture plates at a density of 1.5×10^4 cells/well (the monolayer should reach 80-90% confluency by the day of assay).
In the attached cell assay, culture media was aspirated from each well and the monolayers were washed with 75 μl of room temperature PBS (Mg^++, Ca^++ free). After the addition of 75 μl of cold binding buffer to each well, the plate was chilled at 4° C. for 3 minutes before the addition of competing drugs and isotope. The binding assay was performed in a total volume of 125 μl consisting of assay buffer, maintained at 4° C. (50 mM Tris, pH 7.4, including 1% BSA, and 2 μM phosphoramidon), and 25 μl of either 500 nM ET-1 (to define nonspecific binding) or competing drugs. The reaction was initiated with the addition of 25 μl of 0.25 nM [^125I]-ET-1 (New England Nuclear). Incubation was carried out with gentle orbital shaking, at 4° C., reaching equilibrium at 4 hours. The reaction was terminated by aspiration of the reaction buffer and two subsequent washes with room temperature PBS (Mg^++, Ca^++ free). The cells were dissociated by the addition of 100 μl of 0.5N NaOH followed by incubation for 40 minutes. Samples were then transferred from the 96 well format into tubes for counting in a Cobra gamma counter (Packard). Data was analyzed with curve fitting software by Sigma plot.
In each assay run that was performed, one sample of each atropisomer as well as one sample of racemate was tested for activity.

[3] = Table 1, 97% pure atropisomers of Example 2, Run 1, CHO-K1 cells expressing human ETA, 4° C., read-out: IC50 (nM) Run 1
[4] = Table 1, 97% pure atropisomers of Example 2, Run 2, read-out: IC50 (nM) Run 2
[5] = Table 1, 97% pure atropisomers of Example 2, Run 3, read-out: IC50 (nM) Run 3
[6] = Table 1, 97% pure atropisomers of Example 2, Run 4, read-out: IC50 (nM) Run 4
[7] = Table 2, 99.2% pure atropisomers of Example 2, Run 1, read-out: IC50 (nM) Run 1
[8] = Table 2, 99.2% pure atropisomers of Example 2, Run 2, read-out: IC50 (nM) Run 2
[9] = Table 2, 99.2% pure atropisomers of Example 2, Run 3, read-out: IC50 (nM) Run 3
[10] = Table 2, 99.2% pure atropisomers of Example 2, Run 4, read-out: IC50 (nM) Run 4
[11] = Table 2, 99.2% pure atropisomers of Example 2, Run 5, read-out: IC50 (nM) Run 5
[12] = Table 2, 99.2% pure atropisomers of Example 2, Run 6, read-out: IC50 (nM) Run 6
[13] = Table 2, 99.2% pure atropisomers of Example 2, Run 7, read-out: IC50 (nM) Run 7
[14] = Table 2, 99.2% pure atropisomers of Example 2, Run 8, read-out: IC50 (nM) Run 8
[15] = Table 2, 99.2% pure atropisomers of Example 2, Run 9, read-out: IC50 (nM) Run 9

| SMILES | IC50 [2, 3] [nM] | IC50 [2, 4] [nM] | IC50 [2, 5] [nM] | IC50 [2, 6] [nM] | IC50 [2, 7] [nM] | IC50 [2, 8] [nM] | IC50 [2, 9] [nM] | IC50 [2, 10] [nM] | IC50 [2, 11] [nM] | IC50 [2, 12] [nM] | IC50 [2, 13] [nM] | IC50 [2, 14] [nM] | IC50 [2, 15] [nM] | also measured |
| --- | --- | --- | --- | --- | --- | --- | --- | --- | --- | --- | --- | --- | --- | --- |
| Cc1onc(NS(=O)(=O)c2ccccc2-c2ccc(-c3ncco3)cc2CN(C)C(=O)CC(C)(C)C)c1C (racemic) [Racemate, N-[[2′-[[(4,5-dimethyl-3-isoxazolyl)amino]sulfonyl]-4-(2-oxazolyl)[1,1′-biphenyl]-2-yl]methyl]-N,3,3-trimethylbutanamide] | – | – | – | – | – | – | – | – | – | – | – | – | – | half-life [1]: 15.8 h; half-life ([1]; buffer): ~15 h; IC50 ([2]; IC50 (nM) Run 1, Table 1, 97% pure atropisomers of Example 2, Run 1, CHO-K1 cells expressing human ETA, 4° C.): 0.12 nM; IC50 ([2]; IC50 (nM) Run 1, Table 2, 99.2% pure atropisomers of Example 2, Run 1): 0.018 nM; IC50 ([2]; IC50 (nM) Run 2, Table 1, 97% pure atropisomers of Example 2, Run 2): 0.24 nM; IC50 ([2]; IC50 (nM) Run 2, Table 2, 99.2% pure atropisomers of Example 2, Run 2): 0.08 nM; IC50 ([2]; IC50 (nM) Run 3, Table 1, 97% pure atropisomers of Example 2, Run 3): 0.21 nM; IC50 ([2]; IC50 (nM) Run 3, Table 2, 99.2% pure atropisomers of Example 2, Run 3): 0.4 nM; IC50 ([2]; IC50 (nM) Run 4, Table 1, 97% pure atropisomers of Example 2, Run 4): 0.1 nM; IC50 ([2]; IC50 (nM) Run 4, Table 2, 99.2% pure atropisomers of Example 2, Run 4): 0.3 nM; IC50 ([2]; IC50 (nM) Run 5, Table 2, 99.2% pure atropisomers of Example 2, Run 5): 0.2 nM; IC50 ([2]; IC50 (nM) Run 6, Table 2, 99.2% pure atropisomers of Example 2, Run 6): 0.4 nM; IC50 ([2]; IC50 (nM) Run 7, Table 2, 99.2% pure atropisomers of Example 2, Run 7): 0.24 nM; IC50 ([2]; IC50 (nM) Run 8, Table 2, 99.2% pure atropisomers of Example 2, Run 8): 0.16 nM; IC50 ([2]; IC50 (nM) Run 9, Table 2, 99.2% pure atropisomers of Example 2, Run 9): 0.27 nM |
| Cc1onc(NS(=O)(=O)c2ccccc2-c2ccc(-c3ncco3)cc2CN(C)C(=O)CC(C)(C)C)c1C (single isomer, unassigned) [97% pure (+) dextrorotatory, N-[[2′-[[(4,5-dimethyl-3-isoxazolyl)amino]sulfonyl]-4-(2-oxazolyl)[1,1′-biphenyl]-2-yl]methyl]-N,3,3-trimethylbutanamide] | 0.03 | 0.01 | 0.01 | 0.01 | 0.002 | 0.002 | 0.7 | 0.1 | 0.3 | 0.38 | 0.34 | 0.38 | 0.41 | potency compared with the (−) levorotatory atropisomer or the racemate ([2]; endothelin antagonist, statement in words): remarkably higher potency |
| Cc1onc(NS(=O)(=O)c2ccccc2-c2ccc(-c3ncco3)cc2CN(C)C(=O)CC(C)(C)C)c1C (single isomer, unassigned) [97% pure (−) levorotatory, N-[[2′-[[(4,5-dimethyl-3-isoxazolyl)amino]sulfonyl]-4-(2-oxazolyl)[1,1′-biphenyl]-2-yl]methyl]-N,3,3-trimethylbutanamide] | 0.41 | 0.9 | 0.6 | 1.4 | 0.1 | 0.65 | 6 | 5 | 7 | 3.7 | 21 | 14 | 19 | – |
